Experimental findings from PubChem BioAssay AID272 (DTP/NCI, 2004) are described below.

“And” between values parts separate entries of the source, which are not always exact repeats. Equal values may be shown once. Inconclusive results are not listed.

The test system of the test is Lewis lung carcinoma i.m., BDF1 mice, T/C %. Nature of the test: NCI In Vivo Anticancer Drug Screen. Data for tumor model Lewis Lung Carcinoma (intramuscular) in B6D2F1 (BDF1) mice. In short, it runs like this: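 Tumour-bearing mice were dosed with compound, and either their survival or their tumour size was measured. Results were expressed relative to vehicle-treated controls as T/C.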

As to `CS(=O)(=O)OCCCNCCCOS(C)(=O)=O`, the T/C was 110 % of control and 113 % of control and 119 % of control (endpoint: median survival time, dose: 10.0 mg/kg/injection, schedule: Q01DX011 (ip), vehicle: saline, higher = longer survival); 109 % of control (endpoint: median survival time, dose: 20.0 mg/kg/injection, schedule: Q01DX011 (ip), vehicle: saline, higher = longer survival); 92 % of control and 107 % of control (endpoint: median survival time, dose: 40.0 mg/kg/injection, schedule: Q01DX011 (ip), vehicle: saline, higher = longer survival).

Take `CCn1cnc2c(=S)nc[nH]c21`: the T/C (endpoint: mean tumor weight (est.), dose: 25.0 mg/kg/injection, schedule: Q01DX011 (ip), vehicle: Klucel (hydroxypropylcellulose) (HPC), higher = larger tumour) is 110 % of control; the T/C (endpoint: mean tumor weight, dose: 1.56 mg/kg/injection, schedule: Q01DX011 (ip), vehicle: steriod suspending solution, higher = larger tumour) is 81 % of control; the T/C (endpoint: mean tumor weight, dose: 6.25 mg/kg/injection, schedule: Q01DX011 (ip), vehicle: steriod suspending solution, higher = larger tumour) was 86 % of control; the T/C (endpoint: median survival time, dose: 0.78 mg/kg/injection, schedule: Q01DX011 (ip), vehicle: Klucel (hydroxypropylcellulose) (HPC), higher = longer survival) is 100 % of control; the T/C (endpoint: median survival time, dose: 1.56 mg/kg/injection, schedule: Q01DX011 (ip), vehicle: Klucel (hydroxypropylcellulose) (HPC), higher = longer survival) is 104 % of control; the T/C (endpoint: median survival time, dose: 3.12 mg/kg/injection, schedule: Q01DX011 (ip), vehicle: Klucel (hydroxypropylcellulose) (HPC), higher = longer survival) was 106 % of control. Also, the T/C (endpoint: median survival time, dose: 6.25 mg/kg/injection, schedule: Q01DX011 (ip), vehicle: Klucel (hydroxypropylcellulose) (HPC), higher = longer survival) was 102 % of control and 108 % of control; the T/C (endpoint: median survival time, dose: 12.5 mg/kg/injection, schedule: Q01DX011 (ip), vehicle: Klucel (hydroxypropylcellulose) (HPC), higher = longer survival) is 106 % of control; the T/C (endpoint: median survival time, dose: 25.0 mg/kg/injection, schedule: Q01DX011 (ip), vehicle: Klucel (hydroxypropylcellulose) (HPC), higher = longer survival) is 95 % of control and 104 % of control.

Regarding `CC[n+]1ccc(Nc2ccc(NC(=O)c3ccc(Nc4cc[n+](CC)c5ccc(N)cc45)cc3)cc2)cc1`, the T/C was 109 % of control (endpoint: mean tumor weight, dose: 0.12 mg/kg/injection, schedule: Q01DX011 (ip), vehicle: water, higher = larger tumour); 83 % of control (endpoint: mean tumor weight, dose: 0.25 mg/kg/injection, schedule: Q01DX011 (ip), vehicle: water, higher = larger tumour); 87 % of control (endpoint: mean tumor weight, dose: 0.5 mg/kg/injection, schedule: Q01DX011 (ip), vehicle: water, higher = larger tumour); 100 % of control (endpoint: mean tumor weight, dose: 1.0 mg/kg/injection, schedule: Q01DX011 (ip), vehicle: water, higher = larger tumour); 67 % of control (endpoint: mean tumor weight, dose: 2.0 mg/kg/injection, schedule: Q01DX011 (ip), vehicle: water, higher = larger tumour); 88 % of control (endpoint: median survival time, dose: 0.12 mg/kg/injection, schedule: Q01DX011 (ip), vehicle: water, higher = longer survival). Further, the T/C is 88 % of control (endpoint: median survival time, dose: 0.25 mg/kg/injection, schedule: Q01DX011 (ip), vehicle: water, higher = longer survival); 92 % of control (endpoint: median survival time, dose: 0.5 mg/kg/injection, schedule: Q01DX011 (ip), vehicle: water, higher = longer survival); 87 % of control (endpoint: median survival time, dose: 0.88 mg/kg/injection, schedule: Q01DX007 (sc), vehicle: saline, higher = longer survival); 104 % of control (endpoint: median survival time, dose: 1.0 mg/kg/injection, schedule: Q01DX011 (ip), vehicle: water, higher = longer survival); 110 % of control (endpoint: median survival time, dose: 1.5 mg/kg/injection, schedule: Q01DX007 (sc), vehicle: saline, higher = longer survival); 106 % of control (endpoint: median survival time, dose: 2.0 mg/kg/injection, schedule: Q01DX011 (ip), vehicle: water, higher = longer survival). For the same compound, the T/C (endpoint: median survival time, dose: 2.5 mg/kg/injection, schedule: Q01DX007 (sc), vehicle: saline, higher = longer survival) is 112 % of control; the T/C (endpoint: median survival time, dose: 4.1 mg/kg/injection, schedule: Q01DX007 (sc), vehicle: saline, higher = longer survival) is 89 % of control; the T/C (endpoint: median survival time, dose: 6.8 mg/kg/injection, schedule: Q01DX007 (sc), vehicle: saline, higher = longer survival) was 66 % of control.

On to `Nc1ncn(C2OC(CO)C(O)C2O)c(=O)n1` (centres undefined), for which the T/C (endpoint: mean tumor weight, dose: 0.19 mg/kg/injection, schedule: Q01DX011 (ip), vehicle: saline, higher = larger tumour) is 105 % of control; the T/C (endpoint: mean tumor weight, dose: 0.38 mg/kg/injection, schedule: Q01DX011 (ip), vehicle: saline, higher = larger tumour) was 82 % of control; the T/C (endpoint: median survival time, dose: 0.1 mg/kg/injection, schedule: Q01DX011 (ip), vehicle: saline, higher = longer survival) is 93 % of control; the T/C (endpoint: median survival time, dose: 0.19 mg/kg/injection, schedule: Q01DX011 (ip), vehicle: saline, higher = longer survival) is 104 % of control; the T/C (endpoint: median survival time, dose: 0.2 mg/kg/injection, schedule: Q01DX011 (ip), vehicle: saline, higher = longer survival) is 106 % of control and 109 % of control; the T/C (endpoint: median survival time, dose: 0.38 mg/kg/injection, schedule: Q01DX011 (ip), vehicle: saline, higher = longer survival) is 90 % of control and 110 % of control. For the same compound, the T/C (endpoint: median survival time, dose: 0.4 mg/kg/injection, schedule: Q01DX011 (ip), vehicle: saline, higher = longer survival) is 105 % of control and 124 % of control; the T/C (endpoint: median survival time, dose: 0.75 mg/kg/injection, schedule: Q01DX011 (ip), vehicle: saline, higher = longer survival) is 112 % of control; the T/C (endpoint: median survival time, dose: 0.8 mg/kg/injection, schedule: Q01DX011 (ip), vehicle: saline, higher = longer survival) was 106 % of control; the T/C (endpoint: median survival time, dose: 1.5 mg/kg/injection, schedule: Q01DX011 (ip), vehicle: saline, higher = longer survival) is 108 % of control.

Consider `CC[n+]1c(-c2ccccc2)c2cc(N)ccc2c2ccc(N)cc21`, for which the T/C reads like this: (endpoint: median survival time, dose: 0.25 mg/kg/injection, schedule: Q01DX011 (ip), vehicle: steriod suspending solution, higher = longer survival) 92 % of control; (endpoint: median survival time, dose: 0.5 mg/kg/injection, schedule: Q01DX011 (ip), vehicle: steriod suspending solution, higher = longer survival) 107 % of control; (endpoint: median survival time, dose: 1.0 mg/kg/injection, schedule: Q01DX011 (ip), vehicle: steriod suspending solution, higher = longer survival) 100 % of control; (endpoint: median survival time, dose: 2.0 mg/kg/injection, schedule: Q01DX011 (ip), vehicle: steriod suspending solution, higher = longer survival) 117 % of control; (endpoint: median survival time, dose: 4.0 mg/kg/injection, schedule: Q01DX011 (ip), vehicle: steriod suspending solution, higher = longer survival) 96 % of control; (endpoint: median tumor weight (est.), dose: 0.25 mg/kg/injection, schedule: Q01DX011 (ip), vehicle: steriod suspending solution, higher = larger tumour) 90 % of control. Moreover, the T/C was 95 % of control (endpoint: median tumor weight (est.), dose: 0.5 mg/kg/injection, schedule: Q01DX011 (ip), vehicle: steriod suspending solution, higher = larger tumour); 90 % of control (endpoint: median tumor weight (est.), dose: 1.0 mg/kg/injection, schedule: Q01DX011 (ip), vehicle: steriod suspending solution, higher = larger tumour); 77 % of control (endpoint: median tumor weight (est.), dose: 2.0 mg/kg/injection, schedule: Q01DX011 (ip), vehicle: steriod suspending solution, higher = larger tumour); 73 % of control (endpoint: median tumor weight (est.), dose: 4.0 mg/kg/injection, schedule: Q01DX011 (ip), vehicle: steriod suspending solution, higher = larger tumour).

For `C[C@]12CC[C@@H]3c4ccc(O)cc4CC[C@H]3[C@@H]1C[C@@H](O)[C@@H]2O`, the T/C (endpoint: mean tumor weight, dose: 3.13 mg/kg/injection, schedule: Q01DX011 (ip), vehicle: saline with Tween-80, higher = larger tumour) is 62 % of control; the T/C (endpoint: median survival time, dose: 0.78 mg/kg/injection, schedule: Q01DX011 (ip), vehicle: saline with Tween-80, higher = longer survival) is 108 % of control; the T/C (endpoint: median survival time, dose: 1.56 mg/kg/injection, schedule: Q01DX011 (ip), vehicle: saline with Tween-80, higher = longer survival) was 98 % of control; the T/C (endpoint: median survival time, dose: 3.12 mg/kg/injection, schedule: Q01DX011 (ip), vehicle: saline with Tween-80, higher = longer survival) was 112 % of control; the T/C (endpoint: median survival time, dose: 6.25 mg/kg/injection, schedule: Q01DX011 (ip), vehicle: saline with Tween-80, higher = longer survival) was 110 % of control.

Take `O=C(Nc1ccc(C2=NCCN2)cc1)c1ccc(C(=O)Nc2ccc(C3=NCCN3)cc2)c(Cl)c1`: the T/C (endpoint: median survival time, dose: 4.0 mg/kg/injection, schedule: Q01DX011 (ip), vehicle: water, higher = longer survival) was 90 % of control.

For `CCCCC/C(C)=N\Nc1ccccn1`, the T/C by setting is: (endpoint: mean tumor weight (est.), dose: 12.5 mg/kg/injection, schedule: Q01DX011 (ip), vehicle: saline with Tween-80, higher = larger tumour) 91 % of control; (endpoint: mean tumor weight (est.), dose: 25.0 mg/kg/injection, schedule: Q01DX011 (ip), vehicle: saline with Tween-80, higher = larger tumour) 88 % of control; (endpoint: mean tumor weight (est.), dose: 50.0 mg/kg/injection, schedule: Q01DX011 (ip), vehicle: saline with Tween-80, higher = larger tumour) 80 % of control; (endpoint: median survival time, dose: 25.0 mg/kg/injection, schedule: Q01DX011 (ip), vehicle: saline with Tween-80, higher = longer survival) 98 % of control; (endpoint: median survival time, dose: 50.0 mg/kg/injection, schedule: Q01DX011 (ip), vehicle: saline with Tween-80, higher = longer survival) 98 % of control.

On to `Nc1ncnc2c1ccn2C1OC(CO)C(O)C1O` (centres undefined), for which the T/C by setting is: (endpoint: median survival time, dose: 0.1 mg/kg/injection, schedule: Q01DX011 (ip), vehicle: steriod suspending solution, higher = longer survival) 90 % of control; (endpoint: median survival time, dose: 0.19 mg/kg/injection, schedule: Q01DX011 (ip), vehicle: steriod suspending solution, higher = longer survival) 101 % of control; (endpoint: median survival time, dose: 0.25 mg/kg/injection, schedule: Q01DX011 (ip), vehicle: carboxymethylcellulose (CMC), higher = longer survival) 106 % of control; (endpoint: median survival time, dose: 0.38 mg/kg/injection, schedule: Q01DX011 (ip), vehicle: steriod suspending solution, higher = longer survival) 92 % of control; (endpoint: median survival time, dose: 0.5 mg/kg/injection, schedule: Q01DX009 (ip), vehicle: Klucel (hydroxypropylcellulose) (HPC), higher = longer survival) 98 % of control; (endpoint: median survival time, dose: 0.5 mg/kg/injection, schedule: Q01DX011 (ip), vehicle: carboxymethylcellulose (CMC), higher = longer survival) 100 % of control. The T/C (endpoint: median survival time, dose: 0.75 mg/kg/injection, schedule: Q01DX011 (ip), vehicle: steriod suspending solution, higher = longer survival) was 86 % of control; the T/C (endpoint: median tumor weight (est.), dose: 0.1 mg/kg/injection, schedule: Q01DX011 (ip), vehicle: steriod suspending solution, higher = larger tumour) was 70 % of control; the T/C (endpoint: median tumor weight (est.), dose: 0.19 mg/kg/injection, schedule: Q01DX011 (ip), vehicle: steriod suspending solution, higher = larger tumour) is 96 % of control; the T/C (endpoint: median tumor weight (est.), dose: 0.38 mg/kg/injection, schedule: Q01DX011 (ip), vehicle: steriod suspending solution, higher = larger tumour) was 70 % of control; the T/C (endpoint: median tumor weight (est.), dose: 0.75 mg/kg/injection, schedule: Q01DX011 (ip), vehicle: steriod suspending solution, higher = larger tumour) was 84 % of control.
